Test results: patent US5049372A, “Anticancer activities in a host by increasing blood and plasma adenosine 5'-triphosphate (ATP) levels” (priority 1988, dated 1991)

Tests used:
[1] = test system: CT26 colon adenocarcinoma; assay: Growth inhibition of footpad CT26 colon adenocarcinoma in CB6F1 mice, second series (FIGS. 2 and 3); assay type: in vivo, mouse; conditions: for Inhibition of tumor growth, schedule ending before inoculation: 12 consecutive days, ending one day before tumor inoculation; for Anticancer activities against established footpad CT26 colon adenocarcinoma: CB6F1 mice, in words; for Deaths before stated day after tumor inoculation: FIG. 2 experiment, palpable CT26 tumors, 10 animals per group; for Inhibition of growth of palpable CT26 tumors (in words): daily i.p. in 2.2 ml saline, pH 6.2, 12 days, starting after tumors palpable, equimolar amounts
Procedure: A further series of tests are conducted whereby tumors are inoculated by injections of 2.5×10^5 CT26 cells (over 90% viability) in 50 μl of phosphate-buffered saline into the right hind footpad of CB6F1 mice. The treatments were initiated at a variety of times after inoculation of the tumors. The injection schedules started either 1 or 5 days after tumor inoculation when none of the tumors are palpable or when the tumors are clearly palpable (average calculated weight of 100 mg), which occur in 100% of the inoculated mice after 8-11 days. Mice are randomized, divided into groups, and injected daily with 2.2 ml of saline, adenosine, AMP, or ATP (compounds are in sterile saline solutions at concentrations of 25 mM with AMP and ATP solutions adjusted to pH 6.2). Injections are administered intraperitoneally with 30 gauge needles and the mice are lightly anesthetized with […]. The mice are weighed and tumor sizes measured before the start of the treatment schedule and every three days during and after the treatment schedule. These determinations are performed before injections during the treatment period.
In particular, see FIG. 2. FIG. 2 illustrates inhibition of tumor growth (---) and host weight loss (-) in tumor-bearing mice by treatment with adenine nucleotides. Mice (CB6F1, 8 week old males) bearing palpable CT26 footpad tumors (on day 9 after tumor inoculation) are treated with saline (.smallcircle.), adenosine (o), AMP (Δ), or ATP (.quadrature.) as described herein. An untreated group is also included (x). Arrows indicate days of injection.
The magnitude of the antitumor activities of AMP and ATP depends to a small extent on the pH of the solution administered intraperitoneally. This property is probably related to the number of negative charges on the phosphate groups (the pKa of the secondary phosphate is around 6.6). AMP and especially ATP have some buffering capacity, and at a pH below 6.6 they carry a smaller net charge than at a physiological pH. The lower charge of these molecules enhances the initial (first hour) transport of AMP and ATP across the peritoneal membrane and into the systemic circulation (see Torres, et al., 1978, Pharmacol., 17, 330-340). […] The treatment schedule of palpable CT26 tumors which is illustrated in FIG. 2 consistently yields 10-20% of "cures". These mice remain tumor-free for at least two months.
FIG. 3 further illustrates inhibition of host weight loss in tumor-bearing animals by treatment with adenine nucleotides. Mice (CB6F1, males, 7 weeks old, in A, 10 weeks old in B, […]) with saline (.smallcircle.), adenosine (o), AMP (Δ), or ATP (.quadrature.) are initiated 1 day (A), 5 days (B), or 9 days after tumor inoculation (when all the tumors were palpable) (C). Arrows indicate days of injection. Experimental procedures were outlined in the text.

CAPAN-1 xenografts = assay: Arrest of growth of CAPAN-1 xenografts in athymic nu/nu mice (Table 2); assay type: in vivo, human; conditions: 1 ml of 50 mM i.p.
Procedure: The tumor cell lines employed were CT26, a mouse undifferentiated, aggressive colon carcinoma, and CAPAN-1, a well-differentiated human pancreatic adenocarcinoma. […] The cells are shown to be free of Mycoplasma contamination. Cells are cultured at 37° C. in a humidified atmosphere of 5% CO2 /95% air in MEM supplemented with antibiotics (100 units of penicillin per ml and 100 μg streptomycin per ml), L-glutamine (2 mM), non-essential amino acids (0.1 mM), sodium pyruvate (1 mM), and 10% fetal bovine serum.
In the tests, females and males CB6F1 mice (a standard F1 hybrid of BALB/C and C57BL/6) obtained from Jackson Laboratories, Bar Harbor, Maine and athymic outbred NCr nu/nu mice (males and females) from the Department of Radiation Medicine, Massachusetts General Hospital, Boston, Mass. 02114 are used. All the mice are kept for at least two weeks before inoculation of the tumors and the start of treatment and are 7-9 weeks old (CB6F1) or 6-7 weeks old (athymic nu/nu) at the start of the procedure. Animals weigh 20-25 g (females) or 23-28 g (males), are housed 5-12 per cage, and have ad libitum access to food and water.
Tumor cells are removed from subconfluent cultures by a mild trypsin-EDTA treatment, the cell pellet is washed once with MEM without serum and the cells are suspended at the desired cell numbers in PBS (phosphate-bufferedsaline, 8 g NaCl, 0.2 g KCl, 1.15 g Na2 HPO4.7H2 O, and 0.2 g KH2 PO4 per liter). Cell suspensions are shown to be at least 90% viable by trypan blue exclusion. Mice are injected subcutaneously in the right hind footpad with tumor cells suspended in 50 μl of PBS. The regular protocol (unless otherwise stated) consists of daily i.p. injections of 1 ml of 0.85% NaCl solution or 1 ml of 50 mM of AMP, ADP, or ATP in 0.85% NaCl (from stock solutions adjusted to pH 6.2) starting one day after tumor inoculation and given for ten consecutive days.
Injections are administered with 30 gauge needles and the mice are lightly anesthetized with ether. The mice are weighed before the start of treatment and once a week during and after treatment. After the tumors become palpable, tumor sizes are determined every three days. The animals are sacrificed, tumors are excised and weighed before they reach 10% of the animals' weight.
The effects of AMP, ADP, and ATP on human tumor xenografts in nude mice were evaluated utilizing the pancreatic ductal adenocarcinoma CAPAN-1 (see Kyriazis AP, Kyriazis AA, Scarpelli DG, Fogh J, Rao SM, Lepera R., "Human Pancreatic Adenocarcinoma Line CAPAN-1 in Tissue Culture and the Nude Mouse", Am. J. Pathol., 1982, 106, 250-260).
Treatment schedules consist of single daily i.p. injections for 10 consecutive days, starting one day after tumor inoculation. Tumor burden is relatively low (0.5-1×10^5 cells implanted) and tumor growth is slow (tumors became palpable 4-6 weeks after inoculation).

[2] = experiment 4, 11 F, 0.5 × 10^5 cells, 10 weeks
[3] = experiment 5, 10 F, 0.5 × 10^5 cells, 9 weeks

Nc1ncnc2c1ncn2[C@@H]1O[C@H](COP(=O)(O)O)[C@@H](O)[C@H]1O [AMP, adenosine 5'-monophosphate]
Inhibition of tumor growth, schedule ending before inoculation [1]: No inhibition of tumor growth | Anticancer activities against established footpad CT26 colon adenocarcinoma [1]: exhibit significant anticancer activities | Deaths before stated day after tumor inoculation [1]: No deaths occurred before day 22 | Inhibition of growth of palpable CT26 tumors (in words) [1]: significantly inhibit the growth of this fast-growing tumor | Inhibition of tumor growth relative to ATP ([1]; treatment initiated one day after tumor inoculation): as effective as ATP in inhibiting tumor growth | Arrested tumors/implanted tumors (CAPAN-1 xenografts; [2]): 7/11 | Arrested tumors/implanted tumors (CAPAN-1 xenografts; [3]): 6/10

Nc1ncnc2c1ncn2[C@@H]1O[C@H](COP(=O)(O)OP(=O)(O)OP(=O)(O)O)[C@@H](O)[C@H]1O [ATP, adenosine 5'-triphosphate]
Inhibition of tumor growth, schedule ending before inoculation [1]: No inhibition of tumor growth | Anticancer activities against established footpad CT26 colon adenocarcinoma [1]: exhibit significant anticancer activities | Deaths before stated day after tumor inoculation [1]: No deaths occurred before day 22 | Inhibition of tumor growth, palpable tumors, relative to AMP ([1]; applied to palpable tumors (FIG. 2)): more pronounced than that obtained with AMP | Inhibition of growth of palpable CT26 tumors (in words) [1]: significantly inhibit the growth of this fast-growing tumor | Arrested tumors/implanted tumors (CAPAN-1 xenografts; experiment 2, 5 F, 1 × 10^5 cells, 7 weeks): 4/5 | Arrested tumors/implanted tumors (CAPAN-1 xenografts; experiment 3, 5 F, 1 × 10^5 cells, 6 weeks): 3/5 | Arrested tumors/implanted tumors (CAPAN-1 xenografts; [2]): 8/11 | Arrested tumors/implanted tumors (CAPAN-1 xenografts; [3]): 8/10
